From US20200278355A1, “CONJUGATED PROTEINS AND USES THEREOF” (THE SCRIPPS RESEARCH INSTITUTE, priority 2017, published 2020)

Biological target: T1, C274 of NR0B1 (Homo sapiens, UniProt P51843)
T1 construct: expressed in transfected cells; host or cells: HEK-293T, transient, pRK5-based vector
Assay: Site of labeling by LC-MS/MS of FLAG-NR0B1 tryptic peptides
Format: binding
Details: BPK-26 100 μM, 3 h in lysate, BPK-29 50 μM, 3 h in HEK293T cells
Protocol: FIG. 11A-FIG. 11F illustrate a covalent ligand targeting Cys274 disrupts NR0B1 protein complexes. […] See also FIG. 5C. […] Top: Structures of screening hit BPK-28 and synthesized derivatives. […] The In vitro-binding assay was performed as described in FIG. 5B using compounds at a concentration of 50 μM. Bottom: Data represent mean values±SD normalized to DMSO control. n=4/group. […] Top: Compounds were tested as described in FIG. 5B. Bottom: Graph of concentration-dependent inhibition of NR0B1-SNW1 interactions by the indicated compounds. Percent binding was normalized to vehicle (DMSO). Data represent mean values±SD (n=2-5/group). FIG. 11D and FIG. 11E show NR0B1 ligands BPK-26 (D) and BPK-29 (E) covalently modify C274 in NR0B1. Lysate generate from HEK293T cell expressing FLAG-NR0B1 was treated with DMSO or BPK-26 (100 μM, 3 h, D). […] FLAG-immunoprecipitates were prepared from each lysate and subjected to proteolytic digestion, whereupon tryptic peptides harboring C274 were analyzed by LC-MS/MS. […] Immunoprecipitates were analyzed by in-gel fluorescence-scanning to assess BPK-29yne labeling or by immunoblot for FLAG-NR0B1. […] In a modified in vitro binding assay shown in FIG. 5B, HEK293T cells expressing HA-NR0B1-WT or an HA-NR0B1-C274V mutant were treated with DMSO or BPK-26 (20 μM, 3 h), after which lysates were and interaction with FLAG-SNW1 assessed. […]

T1 sequence (P51843 whole entry): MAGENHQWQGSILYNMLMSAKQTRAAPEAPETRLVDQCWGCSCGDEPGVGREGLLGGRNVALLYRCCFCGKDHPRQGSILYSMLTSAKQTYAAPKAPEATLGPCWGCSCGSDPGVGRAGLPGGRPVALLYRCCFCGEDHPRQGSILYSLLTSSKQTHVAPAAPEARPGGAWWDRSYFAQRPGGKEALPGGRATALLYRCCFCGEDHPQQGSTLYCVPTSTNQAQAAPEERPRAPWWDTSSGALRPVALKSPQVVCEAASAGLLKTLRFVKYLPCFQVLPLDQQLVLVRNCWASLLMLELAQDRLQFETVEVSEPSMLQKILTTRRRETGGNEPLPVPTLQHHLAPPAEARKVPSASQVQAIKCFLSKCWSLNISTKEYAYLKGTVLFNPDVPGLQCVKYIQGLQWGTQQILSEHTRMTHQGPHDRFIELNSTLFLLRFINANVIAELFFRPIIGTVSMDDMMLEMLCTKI

Structure (SMILES)	covalent modification of C274 of NR0B1
O=C(CCl)N(Cc1cccc(Cl)c1F)c1ccc(Cl)nc1 [BPK-26, 2-chloro-N-(3-chloro-2-fluorobenzyl)-N-(6-chloropyridin-3-yl)acetamide]	covalently modified C274 of NR0B1
O=C(c1ccc(N2CCOCC2)cc1)N1CCCC(N(Cc2ccccc2)C(=O)CCl)CC1 (centres unmarked) [BPK-29, N-benzyl-2-chloro-N-(1-(4-morpholinobenzoyl)azepan-4-yl)acetamide]	covalently modified C274 of NR0B1
